The values that follow come from patent US5574059A, “Treating disorders mediated by vascular smooth muscle cell proliferation” (priority 1995, dated 1996).

SMILES strings stand for the structures. Where two headings read alike, the source gives them in different places.

One assay has as its system I2 imidazoline receptors. The assay is described as follows: inhibition of 3H-idazoxan (5 nM) binding to rat aortic smooth muscle cell membranes. The following applies: Table 2; 3H-idazoxan 5 nM; rat aortic smooth muscle cell membranes; read-out: Ki. How it is done:
Binding to I2 imidazoline receptors is determined by the following assay. Membranes are prepared from cultured cells for ligand binding as described in Regunathan, S., et al, Biochem. Pharmacol. 45, 1667-1675 (1993) and Regunathan, S., et al, J. Neurosci. Res. 34, 681-688 (1993) and the disclosure in these on this is incorporated herein by reference. In particular, harvested rat aortic smooth muscle cells are homogenized in Hepes-sucrose buffer (pH 7.4) with a Teflon-glass homogenizer and centrifuged at 1000 × g for 10 minutes. The pellets are suspended in ice-cold Tris-HCl buffer (pH 7.7) with 5mM ethylene diamine tetracetic acid and homogenized using a Polytron (Brinkman Instruments) for 10 seconds. The homogenate is centrifuged at 40,000 × g for 30 minutes to produce a membrane pellet. The membrane pellet is washed three times by resuspending in buffer and re-centrifuging. The washed pellet is suspended in fresh Tris-HCl buffer (pH 7.4) to provide approximately 100 μg protein per assay tube. Binding assays are performed in Tris-HCl buffer (pH 7.7) using 5 nM of […]. Non-specific binding is defined by 100 μM of unlabelled idazoxan which will inhibit the specific binding of ^3 H-idazoxan. Thus the binding remaining in the presence 100 μM of idazoxan is due to non-specific binding and this will be substracted from total binding to calculate the specific binding. Following incubation at 25° C. for 30 minutes, reaction is terminated by rapid vacuum filtration over Whatman GF/B filters and washed with 10 ml of ice-cold buffer. Filters are suspended in scintillation fluid and radioactivity counted in a liquid scintillation counter. Membrane protein is assayed by Coomassie Blue method (Pierce) using bovine serum albumin as standard.
Determination of inhibition constant (Ki) for each drug is determined as follows: The binding of ^3 H-idazoxan to membranes of vascular smooth muscle cells is determined in the presence of 0.1 nM to 100 μM concentrations of potential drug. The percent inhibition of specific binding of ^3 H-idazoxan by each concentration is calculated and plotted against concentration. The data is analyzed by non-linear curve fitting program, LIGAND and the IC50 value for each potential drug is calculated. The affinity for each drug (Ki) for I2 imidazoline receptors is calculated using the formula Ki =IC50 /1+L/Kd where L is the concentration of ^3 H-idazoxan used for binding and Kd is the dissociation constant for ^3 H-idazoxan for I2 imidazoline receptors. The dissociation constant (Kd) is determined by Scatchard analysis of the saturation binding of ^3 H-idazoxan using the formula [formula] where B and F are the amount of bound and free ligand, respectively, and Bmax is the number of binding sites.
Primary cultures of rat-aortic smooth muscle cells were prepared by a modification (described in Erlinge, Do, et al, Am. J. Physiol. 265, H1089-1097, 1993) of the method of Meyer-Lehnert and Schrier (Meyer-Lehnert, H., et al, Hypertension 13,350-361, 1989), the disclosure of these cited articles being incorporated herein by reference. Briefly, rats were killed by anesthetic overdose and the aorta were removed and incubated with collagenase (2 mg/ml) in Dulbecco's modified Eagle's minimum essential medium (DMEM). The vessel was stripped of adventitia, cut longitudinally and the intima scraped away. After further collagenase treatment, the remaining tissue was passed 20 times through 18 and 16 gauge needles. The resulting cell suspension was centrifuged at 500 × g for 5 minutes and resuspended in DMEM containing penicillin (100 units/ml), streptomycin (100 μg/ml), 2 mM L-glutamine and 10% fetal calf serum. The suspended cells were plated in T-75 flasks, cultured until confluent, and subcultured in 100 mm plates. The confluent cells were harvested and membranes were prepared. Cell viability was determined by trypan blue exclusion.

Assay [1] relates to rat aortic smooth muscle cells. Put plainly: serum-stimulated proliferation, 3H-thymidine incorporation into DNA. Format: cell-based. The following applies: for IC50: Rattus norvegicus, read-out: 3H-thymidine incorporated (IC50). How it is done:
Inhibition of serum-stimulated proliferation of rat aortic smooth muscle cells is determined as follows: The antiproliferative effect of potential drug is determined by measuring the incorporation of ^3 H-thymidine into cellular DNA. Exposure of quiescent vascular smooth muscle cell to serum, which contains many growth factors, results in a large increase in cellular proliferation as measured by ^3 H-thymidine incorported into DNA. The inhibitory effect of potential drug on serum-stimulated proliferation is tested by adding a drug before the addition of serum and determining if the serum-stimulated proliferation is reduced. […] In that event, antagonizing of the antiproliferative effect of idazoxan is determined by adding antagonist before the addition of idazoxan to serum-stimulated vascular smooth muscle cells.
In this experiment, the proliferation of vascular smooth muscle cells was determined by measuring DNA replication. The incorporation of ^3 H-thymidine into DNA was used to measure the replication of DNA as described in Erlinge, D., et al, Am. J. Physiol. 265, H1089-H1097 (1993) which is incorporated herein by reference.
Rat aortic smooth muscle cells prepared as described in In Vitro Example 1 were plated into 24-well plates at a density of about 30,000 cells/well in 10% fetal calf serum (FCS). After 48 hours, the cells were starved in 0.5% FCS for another 48 hours to decrease proliferation and induce quiescence. The medium was replaced by serum-free medium 24 hours prior to addition of drug (drugs are described below) and 10% fetal calf serum or only 10% fetal calf serum in the case of the control. The cells were then incubated for 24 hours and ^3 H-thymidine (1 μCi/well) was added at hour 20. At the end of the 24 hour period, the medium was aspirated and the cells were washed three times with phosphate-buffered saline and twice with ice-cold trichloroacetic acid. Fixed cells were then solubilized in 0.2M NaOH and sonicated. A 100 μl aliquot was used for scintillation counting.

Assay [2] in a line: Example I: patient with intermittent claudication, iliac artery plaques. The following applies: over 30 days oral; idazoxan 50 and 75 mg/day, UK 14,304 125, naphazoline 125, cirazoline 75, agmatine 900 mg/day. It is filed as in vivo, human. The source says: A person presents with progressive symptoms of intermittent claudication in both legs.
Assay [3] can be described thus: Example II: patient with narrowing of right common carotid artery, balloon angiography. The following applies: idazoxan 50 or 75 mg/day two weeks before and 3 months after balloon angiography; UK 14,304 125, cirazoline 60, naphazoline 125, agmatine 900 mg/day. It is filed as in vivo, human. How it is done:
A person presents with a history of intermittent brief episodes of transient monocular blindness in the right eye associated with clumsiness and weakness of the left arm and leg. Angiography indicates substantial narrowing of the right common carotid artery. They are with treated with idazoxan at a dosage of 50 or 75 mg/day for two weeks preceding balloon angiography and for 3 months thereafter.

Assay [4] is described as follows: Example III: patient with coronary artery disease, angioplasty. Format: in vivo, human. The following applies: idazoxan 50 mg/day continued for 3 months; substitutes, dose not stated. How it is done: A person presents with the onset of chest pain on exertion. […] Ten days before angioplasty, the patient is begun on 75 or 100 mg/day of idazoxan. […] Treatment with 50 mg/day idazoxan is continued for 3 months.

The nature of assay [5]: Example IV: patient with fibromuscular dysplasia of the renal artery, angioplasty. To be noted: idazoxan 75 mg/day; UK 14,304 60, naphazoline 125, cirazoline 60, agmatine 900 mg/day. It is filed as in vivo, human.
The nature of assay [6]: Example V: patient with Type I diabetes mellitus, overgrowth of retinal vessels. Format: in vivo, human. To be noted: idazoxan 75 mg/day; UK 14,304 60, naphazoline 125, cirazoline 60, agmatine 900 mg/day. The source says: A person with Type I diabetes mellitus and maintained on insulin presents with progressive symptoms of loss of visual acuity bilaterally with evidence on opthalmascopic examination of overgrowth of retinal vessels and hemorrhages.

Where [7] appears, read: 10% fetal calf serum stimulated.

For the molecule `NCCCCN=C(N)N` [Agmatine, 4-(aminobutylguanidine)], the inhibitory constant (Ki) in the assay with I2 imidazoline receptors is 240 ± 25 nM. The “inhibition of vascular smooth muscle cell proliferation, in words” value in assay [1] (setting [7]) was “weakly inhibited”. Further, the IC50 in assay [1] was 340 ± 29 µM. For the same molecule, in assay [2], the “symptoms of intermittent claudication” value is “stabilization of symptoms”. For the same molecule, the “symptoms and restenosis of the vessel” value in assay [3] is given as “comparable results”. Also, the “symptoms / restenosis after angioplasty” value in assay [4] is recorded as “comparable results, i.e., no restenosis”. Moreover, in assay [5], the “re-elevation of pressure / restenosis of the renal artery” value is given as “comparable results, i.e., no restenosis”. Also, the “progression and visual symptoms” value in assay [6] is “comparable results, i.e., no restenosis”.
With `Brc1c(NC2=NCCN2)ccc2nccnc12` [UK 14,304, 5-bromo-N-(4,5-dihydro-1-H-imidazol-2-yl)-6-quinoxalinamine], in the assay with I2 imidazoline receptors, the Ki was determined as 20 ± 1.4 nM. Besides, the “inhibition of vascular smooth muscle cell proliferation, in words” value in assay [1] (setting [7]) was “potently inhibited”. In assay [1] (10% fetal calf serum stimulated, 24 h), the concentration for half-maximal inhibition (IC50) is 15.6 ± 2.8 µM. Moreover, the “symptoms of intermittent claudication” value in assay [2] was “stabilization of symptoms”. Also, in assay [3], the “symptoms and restenosis of the vessel” value is recorded as “comparable results”. Also, the “symptoms / restenosis after angioplasty” value in assay [4] is reported as “comparable results, i.e., no restenosis”. Moreover, the “re-elevation of pressure / restenosis of the renal artery” value in assay [5] was “comparable results, i.e., no restenosis”. Further, the “progression and visual symptoms” value in assay [6] is “comparable results, i.e., no restenosis”.
